Experimental data: patent US5374645A (Ciba-Geigy Corporation, priority 1993, dated 1994)
Read-outs that look alike come from different tables or passages of the source.

What was measured:
[1] = test system: Rabbits; settings: rabbit, in vivo
[2] = not given; remark: listed apart in the source

| Terbutaline Flux (pH 3.8) | relative flux (flux in water case as unity) (pH 3.8) | Terbutaline Flux (pH 4.4) | relative flux (flux in water case as unity) (pH 4.4) | Terbutaline Flux (pH 4.6) | relative flux (flux in water case as unity) (pH 4.6) | Terbutaline Flux (pH 4.9) | relative flux (flux in water case as unity) (pH 4.9) | Terbutaline Flux (pH 5) | relative flux (flux in water case as unity) (pH 5) | Terbutaline Flux ([2]; pH 3.8) | relative flux (flux in water case as unity) ([2]; pH 3.8) | Terbutaline Flux ([2]; pH 4.2) | relative flux (flux in water case as unity) ([2]; pH 4.2) | Structure (SMILES) | classification as primary irritant or corrosive by dermal application [1] |
| --- | --- | --- | --- | --- | --- | --- | --- | --- | --- | --- | --- | --- | --- | --- | --- |
| – | – | – | – | – | – | – | – | – | – | – | – | – | – | CC(C)O [Isopropanol, isopropanol] | neither pure isopropanol nor aqueous isopropanol are classified as primary irritants or as corrosives |
| 0.1 mcg/cm^2 /hr | 1 | 16.3 mcg/cm^2 /hr | 163 | 12.8 mcg/cm^2 /hr | 128 | 16.1 mcg/cm^2 /hr | 161 | 5.3 mcg/cm^2 /hr | 53 | 0.1 mcg/cm^2 /hr | 1 | 4.1 mcg/cm^2 /hr | 40 | CC(C)(C)NCC(O)c1cc(O)cc(O)c1 (stereo not drawn) [Terbutaline, terbutaline] | – |
